Measured values as given in ChEMBL document CHEMBL2380283, “Design and synthesis of thiophene dihydroisoquinolines as novel BACE1 inhibitors” (Bioorg Med Chem Lett, 2013).

Key:
Beta-secretase 1 [1] = biological target: T1, Beta-secretase 1 (Homo sapiens, UniProt P56817); test: Inhibition of BACE1 (unknown origin) by Alpha screen assay
Cathepsin D = Cathepsin D (Homo sapiens, UniProt P07339); test: Inhibition of cathepsin-D (unknown origin) after 110 mins by fluorescence polarization assay
Beta-secretase 1 [2] = biological target: T1, Beta-secretase 1; test: Inhibition of recombinant BACE1 (unknown origin) expressed in Escherichia coli using biotinylated APP swidesh mutant as substrate incubated for 20 mins prior to substrate addition measured after 3 hrs by fluorescence polarization assay
[3] = Apparent permeability across apical to basolateral side in MDCK cells expressing MDR1 at 5 uM after 120 mins by LC/MS/MS analysis; format: ADME, cell-based, Canis lupus familiaris; conditions: dog

T1 sequence (P56817 whole entry): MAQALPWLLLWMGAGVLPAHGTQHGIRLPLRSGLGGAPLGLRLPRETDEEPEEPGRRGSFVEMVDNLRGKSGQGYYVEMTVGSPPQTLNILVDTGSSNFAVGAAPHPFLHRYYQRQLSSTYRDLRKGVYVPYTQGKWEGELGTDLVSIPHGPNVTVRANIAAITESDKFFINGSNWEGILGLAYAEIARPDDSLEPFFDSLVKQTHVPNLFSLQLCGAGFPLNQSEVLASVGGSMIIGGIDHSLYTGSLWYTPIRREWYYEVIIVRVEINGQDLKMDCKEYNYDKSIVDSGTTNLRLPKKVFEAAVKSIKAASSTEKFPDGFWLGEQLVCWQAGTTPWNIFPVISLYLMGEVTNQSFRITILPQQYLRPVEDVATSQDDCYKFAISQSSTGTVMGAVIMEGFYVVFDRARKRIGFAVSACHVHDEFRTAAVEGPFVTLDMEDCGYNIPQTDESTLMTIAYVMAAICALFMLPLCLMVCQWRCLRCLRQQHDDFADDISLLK
Chain of Cathepsin D (P07339 65-162 limits assumed): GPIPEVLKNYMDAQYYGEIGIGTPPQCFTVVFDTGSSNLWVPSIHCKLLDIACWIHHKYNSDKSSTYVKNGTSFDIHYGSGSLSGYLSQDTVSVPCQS
Chain of Cathepsin D (P07339 169-412 limits assumed): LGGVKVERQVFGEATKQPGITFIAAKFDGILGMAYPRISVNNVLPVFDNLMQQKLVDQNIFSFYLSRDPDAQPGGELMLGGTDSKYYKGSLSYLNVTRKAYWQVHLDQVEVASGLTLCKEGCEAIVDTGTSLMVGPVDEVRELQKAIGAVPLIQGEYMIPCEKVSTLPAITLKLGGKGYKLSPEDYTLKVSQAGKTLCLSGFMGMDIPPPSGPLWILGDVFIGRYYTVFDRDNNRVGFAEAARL

SMILES	IC50 (Beta-secretase 1 [1]) [nM]	further results
CC1(C)Cc2cc(Cl)ccc2C(N[C@H](Cc2ccccc2)C(=O)O)=N1	264000	–
CC1(C)Cc2cc(Cl)ccc2C(NC(Cc2ccsc2)C(=O)O)=N1 (stereo not drawn)	2900	–
CC1(C)Cc2cc(Cl)ccc2C(NC(Cc2cscc2Br)C(=O)O)=N1 (stereo not drawn)	310	–
CC1(C)Cc2cc(Cl)ccc2C(NC(Cc2ccsc2Br)C(=O)O)=N1 (stereo not drawn)	9500	–
CC1(C)Cc2cc(Cl)ccc2C(NC(Cc2sccc2Br)C(=O)O)=N1 (stereo not drawn)	710	–
CC1(C)Cc2cc(Cl)ccc2C(NC(Cc2cscc2-c2ccncc2)C(=O)O)=N1 (stereo not drawn)	1850	–
CC1(C)Cc2cc(Cl)ccc2C(NC(Cc2cscc2-c2ncco2)C(=O)O)=N1 (stereo not drawn)	820	–
CC1(C)Cc2cc(Cl)ccc2C(NC(Cc2cscc2-c2cc[nH]n2)C(=O)O)=N1 (stereo not drawn)	1260	–
CC1(C)Cc2cc(Cl)ccc2C(NC(Cc2cscc2-c2cn[nH]c2)C(=O)O)=N1 (stereo not drawn)	450	–
Cn1cc(-c2cscc2CC(NC2=NC(C)(C)Cc3cc(Cl)ccc32)C(=O)O)cn1 (stereo not drawn)	1090	–
CCc1cscc1CC(NC1=NC(C)(C)Cc2cc(Cl)ccc21)C(=O)O (stereo not drawn)	630	–
CCCc1cscc1CC(NC1=NC(C)(C)Cc2cc(Cl)ccc21)C(=O)O (stereo not drawn)	610	–
CC1(C)Cc2cc(Cl)ccc2C(NC(Cc2cscc2CCC2CC2)C(=O)O)=N1 (stereo not drawn)	570	–
CC1(C)Cc2cc(Cl)ccc2C(NC(Cc2cscc2C2CC2)C(=O)O)=N1 (stereo not drawn)	2430	–
C#Cc1cscc1CC(NC1=NC(C)(C)Cc2cc(Cl)ccc21)C(=O)O (stereo not drawn)	760	–
CC#Cc1cscc1CC(NC1=NC(C)(C)Cc2cc(Cl)ccc21)C(=O)O (stereo not drawn)	510	–
CCCc1scc(-c2cn[nH]c2)c1CC(NC1=NC(C)(C)Cc2cc(Cl)ccc21)C(=O)O (stereo not drawn)	8	IC50 (Cathepsin D): > 30000 nM; IC50 (Beta-secretase 1 [2]): 400 nM
CCCc1scc(-c2cn[nH]c2)c1CC(NC1=NC(C)(C)Cc2cc(Cl)ccc21)c1nccc(=O)[nH]1 (stereo not drawn)	406	Papp A→B at 2 h, 5 µM [3]: 10 ×10⁻⁶ cm/s; IC50 (Cathepsin D): > 30000 nM; IC50 (Beta-secretase 1 [2]): 40000 nM
